Test results reported in BindingDB's records for doi:10.1016/j.ejmech.2017.06.016 (University of Science and Technology of China, 2017).

molecular target: T1, Cytoplasmic tyrosine-protein kinase BMX (Homo sapiens, UniProt P51813); test: ChEBML_1715921
T1 sequence (P51813 whole entry): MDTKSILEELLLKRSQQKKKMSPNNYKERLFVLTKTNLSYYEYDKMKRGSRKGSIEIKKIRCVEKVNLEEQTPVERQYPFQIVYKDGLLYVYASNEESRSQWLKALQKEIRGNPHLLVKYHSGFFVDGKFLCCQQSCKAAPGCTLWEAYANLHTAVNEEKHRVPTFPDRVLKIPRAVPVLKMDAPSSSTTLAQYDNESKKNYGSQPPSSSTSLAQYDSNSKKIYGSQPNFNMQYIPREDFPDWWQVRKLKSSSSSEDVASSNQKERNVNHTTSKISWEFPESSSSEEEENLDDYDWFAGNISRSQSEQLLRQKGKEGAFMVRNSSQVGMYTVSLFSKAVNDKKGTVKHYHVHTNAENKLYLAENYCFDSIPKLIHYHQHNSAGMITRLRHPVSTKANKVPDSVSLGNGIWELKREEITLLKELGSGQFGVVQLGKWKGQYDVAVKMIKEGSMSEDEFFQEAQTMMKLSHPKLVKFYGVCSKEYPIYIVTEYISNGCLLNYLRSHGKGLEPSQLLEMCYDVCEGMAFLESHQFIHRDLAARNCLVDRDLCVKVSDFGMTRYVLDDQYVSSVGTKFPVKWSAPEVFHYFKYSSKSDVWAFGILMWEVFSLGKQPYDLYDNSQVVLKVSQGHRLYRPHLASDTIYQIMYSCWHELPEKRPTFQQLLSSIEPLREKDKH
Experimental: Inhibition of recombinant full length His-tagged human BMX expressed in baculovirus expression system using poly (4:1 Glu, Tyr) as substrate preincubated for 1 hr followed by substrate addition measured after 1 hr by ADP-glo assay

Row | Structure (SMILES) | IC50
1 | C=CC(=O)Nc1cc(-n2c(=O)ccc3cnc4ccc(-c5ccsc5)cc4c32)ccc1C [QL-XI-75] | 20 nM
2 | C=CC(=O)Nc1cccc(-n2c(=O)ccc3cnc4ccc(-c5cn[nH]c5)cc4c32)c1 [QL-XI-13] | 11 nM
3 | C=CC(=O)Nc1cccc(-n2c(=O)ccc3cnc4ccc(-c5ccc(N)nc5)cc4c32)c1 [QL-X-132] | 16 nM

Second part, the compound after the results:

Row | IC50 | Structure (SMILES)
4 | 13 nM | C=CC(=O)Nc1cc(-n2c(=O)ccc3cnc4ccc(-c5ccc6c(c5)OCCO6)cc4c32)ccc1C [QL-XII-115]
5 | 13 nM | C=CC(=O)N1CCc2ccc(-n3c(=O)ccc4cnc5ccc(-c6ccc(N)nc6)cc5c43)cc21 [QL-XII-45]
6 | 19 nM | C=CC(=O)Nc1cc(-n2c(=O)ccc3cnc4ccc(-c5cnc6ccccc6c5)cc4c32)ccc1C [QL-XII-54]
